Converted amounts (≈) assume the structure as drawn.
Tests used:
[1] = system: Mycobacterium avium; settings: 104
[2] = system: Mycobacterium avium; settings: 104 mc'2 4
[3] = system: Mycobacterium avium; settings: isolate MAV3
[4] = system: Mycobacterium avium; settings: 104 mc'2 4; remark: listed apart in the source
[5] = system: Mycobacterium avium; settings: isolate MAV4
[6] = system: Mycobacterium avium subsp. avium ATCC 25291
[7] = system: Mycobacterium avium; settings: 104 mc'2 3
[8] = system: Mycobacterium avium subsp. avium ATCC 25291; remark: listed apart in the source
[9] = system: Mycobacterium avium; settings: 104 mc'2 3; remark: listed apart in the source
[10] = system: Mycobacterium avium; settings: 104; remark: listed apart in the source
[11] = system: Mycobacterium avium; settings: isolate MAV4; remark: listed apart in the source
Description: Inhibition of multidrug resistance efflux pump in Mycobacterium avium isolate MAV4 assessed as potentiation of ethidium bromide-induced antibacterial activity by measuring ethidium bromide MIC at 1/4 MIC incubated for 3 days by MTT assay

[12] = system: Mycobacterium avium; settings: isolate MAV4; remark: listed apart in the source
[13] = system: Mycobacterium avium; assay: Antimycobacterial activity against Mycobacterium avium ATCC 25291 assessed as reduction in bacterial viability incubated for 3 days by MTT assay; type: organism-based; settings: mycobacterium avium subsp. avium atcc 25291, 72 h
[14] = system: Mycobacterium avium; settings: isolate MAV2
Description: Inhibition of multidrug resistance efflux pump in Mycobacterium avium isolate MAV2 assessed as potentiation of ofloxacin-induced antibacterial activity by measuring ofloxacin MIC at 1/4 MIC incubated for 3 days by MTT assay

[15] = system: Mycobacterium avium; settings: 104; remark: listed apart in the source
[16] = system: Mycobacterium avium subsp. avium ATCC 25291; remark: listed apart in the source
[17] = system: Mycobacterium avium; settings: isolate MAV4; remark: listed apart in the source
[18] = system: Mycobacterium avium; settings: isolate MAV1
[19] = system: Mycobacterium avium; settings: 104; remark: listed apart in the source
[20] = system: Mycobacterium avium; settings: isolate MAV1; remark: listed apart in the source
[21] = system: Mycobacterium avium; assay: Antimycobacterial activity against Mycobacterium avium isolate MAV1 assessed as reduction in bacterial viability incubated for 3 days by MTT assay; type: organism-based; settings: in vitro, 72 h
[22] = system: Mycobacterium avium subsp. avium ATCC 25291; remark: listed apart in the source
[23] = system: Mycobacterium avium; settings: 104 mc'2 3; remark: listed apart in the source
[24] = system: Mycobacterium avium; settings: isolate MAV2; remark: listed apart in the source
Description: Inhibition of multidrug resistance efflux pump in Mycobacterium avium isolate MAV2 assessed as potentiation of clarithromycin -induced antibacterial activity by measuring clarithromycin MIC at 1/2 MIC incubated for 3 days by MTT assay (Rvb = >1024 ug/ml)

[25] = system: Mycobacterium avium; settings: isolate MAV4; remark: listed apart in the source
[26] = system: Mycobacterium avium; settings: 104 mc'2 4; remark: listed apart in the source
[27] = system: Mycobacterium avium; settings: 104 mc'2 3; remark: listed apart in the source
[28] = system: Mycobacterium avium; settings: isolate MAV4; remark: listed apart in the source
[29] = system: Mycobacterium avium; settings: 104 mc'2 3; remark: listed apart in the source
[30] = system: Mycobacterium avium; settings: 104 mc'2 4; remark: listed apart in the source
[31] = system: Mycobacterium avium; settings: isolate MAV1; remark: listed apart in the source
[32] = system: Mycobacterium avium; settings: 104 mc'2 4; remark: listed apart in the source
[33] = system: Mycobacterium avium; assay: Antimycobacterial activity against Mycobacterium avium isolate MAV4 assessed as reduction in bacterial viability incubated for 3 days by MTT assay; type: organism-based; settings: 72 h
[34] = system: Mycobacterium avium subsp. avium ATCC 25291; remark: listed apart in the source
[35] = system: Mycobacterium avium; settings: isolate MAV1; remark: listed apart in the source
Description: Inhibition of multidrug resistance efflux pump in Mycobacterium avium isolate MAV1 assessed as potentiation of ofloxacin-induced antibacterial activity by measuring ofloxacin MIC at 1/2 MIC incubated for 3 days by MTT assay (Rvb = 4 ug/ml)

[36] = Cytotoxicity in human monocyte-derived macrophages assessed as reduction in cell viability incubated for 3 days by alamar blue dye based assay; set-up: species or system Macrophage cell line
[37] = system: Mycobacterium avium; settings: isolate MAV2; remark: listed apart in the source
[38] = Safety index, ratio of MTC for test compound to MTC for chlorpromazine for cytotoxicity in human monocyte-derived macrophages; type: cell-based, Macrophage cell line
[39] = Safety index, ratio of MTC for test compound to MTC for thioridazine for cytotoxicity in human monocyte-derived macrophages; type: cell-based, Macrophage cell line
[40] = system: Mycobacterium avium; settings: isolate MAV3; remark: listed apart in the source
[41] = system: Mycobacterium avium; settings: 72 h
Description: Antimycobacterial activity against Mycobacterium avium 104 assessed as reduction in bacterial viability incubated for 3 days by MTT assay

[42] = system: Mycobacterium avium subsp. avium ATCC 25291; remark: listed apart in the source
Description: Inhibition of multidrug resistance efflux pump in Mycobacterium avium ATCC 25291 assessed as potentiation of ethidium bromide-induced antibacterial activity by measuring ethidium bromide MIC at 1/2 MIC incubated for 3 days by MTT assay (Rvb = 50 ug/ml)

Q: With `CCCOc1ccc(-c2cn(CCN(CC)CC)c3ccccc3c2=O)cc1` as the molecule, how does the MIC [1] read?
A: 3.12 µg/mL (≈ 8.26 µM)

Q: And the MIC [2]?
A: 2 µg/mL (≈ 5.28 µM)

Q: What about the MIC [3] of the same molecule?
A: 8 µg/mL (≈ 21.1 µM)

Q: What about the MIC [4] of the same molecule?
A: 8 µg/mL (≈ 21.1 µM)

Q: What about the MIC [5] of the same molecule?
A: 16 µg/mL (≈ 42.3 µM)

Q: And the MIC [6]?
A: 32 µg/mL (≈ 84.5 µM)

Q: And the MIC [7]?
A: 2 µg/mL (≈ 5.28 µM)

Q: What about the MIC [8] of the same molecule?
A: 64 µg/mL (≈ 169 µM)

Q: And the MIC [9]?
A: 512 µg/mL (≈ 1350 µM)

Q: And the MIC [10]?
A: 16 µg/mL (≈ 42.3 µM)

Q: And the MIC [11]?
A: 12.5 µg/mL (≈ 33 µM)

Q: And the MIC [12]?
A: 8 µg/mL (≈ 21.1 µM)

Q: And the MIC [13]?
A: 256 µg/mL (≈ 676 µM)

Q: And the MIC [14]?
A: 2 µg/mL (≈ 5.28 µM)

Q: What about the MIC [15] of the same molecule?
A: 6.25 µg/mL (≈ 16.5 µM)

Q: And the MIC [16]?
A: 16 µg/mL (≈ 42.3 µM)

Q: And the MIC [17]?
A: 4 µg/mL (≈ 10.6 µM)

Q: And the MIC [18]?
A: 16 µg/mL (≈ 42.3 µM)

Q: And the MIC [19]?
A: 32 µg/mL (≈ 84.5 µM)

Q: What about the MIC [20] of the same molecule?
A: 8 µg/mL (≈ 21.1 µM)

Q: What about the MIC [21] of the same molecule?
A: 128 µg/mL (≈ 338 µM)

Q: What about the MIC [22] of the same molecule?
A: 16 µg/mL (≈ 42.3 µM)

Q: And the MIC [23]?
A: 512 µg/mL (≈ 1350 µM)

Q: And the MIC [24]?
A: 64 µg/mL (≈ 169 µM)

Q: What about the MIC [25] of the same molecule?
A: 2 µg/mL (≈ 5.28 µM)

Q: And the MIC [26]?
A: 128 µg/mL (≈ 338 µM)

Q: And the MIC [27]?
A: 3.12 µg/mL (≈ 8.26 µM)

Q: And the MIC [28]?
A: 256 µg/mL (≈ 676 µM)

Q: And the MIC [29]?
A: 4 µg/mL (≈ 10.6 µM)

Q: And the MIC [30]?
A: 6.25 µg/mL (≈ 16.5 µM)

Q: And the MIC [31]?
A: 2 µg/mL (≈ 5.28 µM)

Q: What about the MIC [32] of the same molecule?
A: > 512 µg/mL

Q: And the MIC [33]?
A: 256 µg/mL (≈ 676 µM)

Q: What about the MIC [34] of the same molecule?
A: 8 µg/mL (≈ 21.1 µM)

Q: What about the MIC [35] of the same molecule?
A: 4 µg/mL (≈ 10.6 µM)

Q: And the CC50 at 72 h ([36]; human monocyte-derived macrophages)?
A: 56.9 µM

Q: And the MTC ([36]; macrophage cell line, 72 h)?
A: 10 µM

Q: And the MIC [37]?
A: 16 µg/mL (≈ 42.3 µM)

Q: And the selectivity ratio [38]?
A: 2 to 4

Q: What about the selectivity ratio [39] of the same molecule?
A: 4 to 6

Q: And the MIC [40]?
A: 12.5 µg/mL (≈ 33 µM)

Q: What about the MIC [41] of the same molecule?
A: 256 µg/mL (≈ 676 µM)

Q: And the MIC [42]?
A: 25 µg/mL (≈ 66 µM)
